According to patent publication US12171813B2, “Methods of and compositions for reducing gene expression and/or activity” (Christiana Care Gene Editing Institute, Inc., priority 2021, dated 2024):

Tested on: NFE2L2 gene
Test: Screening of SureKill guide RNAs in the NFE2L2 gene for ability to induce indels
Type: cell-based, Human
Conditions: transfections of individual guide RNAs (spCas9 RNP); NCI-H1703 clone 44-25 cells; DECODR
Description: Human lung squamous cell carcinoma NCI-H1703 clone 44-25 cells were derived from NCI-H1703 cells (#CRL-5889) which were purchased from ATCC (Manassas, VA, USA). NCI-H1703 clone 44-25 cells contains R34G mutation (C 4 G) in NFE2L2 gene. H1703 clone 44-25 cells were cultured in ATCC formulation RPMI-1640 with 10% FBS. T75 flasks were used and cells were split 1:5 upon reaching 90% confluency. Human lung adenocarcinoma cells (Dist. Lot. No. LG0703-F948-PDC) were acquired from the National Institute of Health's National Cancer Institute's Patient-Derived Models Repository (PDMR). This PDMR cell line contains the L858R mutation (T 4 G) in the EGFR gene. The PDMR cells were maintained in Advanced DMEM/F12 media containing 10% FBS, 0.4 μg/mL hydrocortisone, 0.01 μg/mL EGF Recombinant Human Protein, 24 μg/mL adenine, and 2 mM L-Glutamine. T75s were used and cells were split 1:3 upon reaching 90% confluency. All cultures were maintained in cell culture incubators at 37° C. and 5% CO2.
Ribonucleoproteins (RNP) are complexed by incubating 250 pmol of purified synthetic gRNA (Synthego Corporation, Redwood City, CA) with 50 pmol of purified spCas9 (Synthego Corporation, Redwood City, CA) at room temperature in nuclease-free 1× TE buffer for 15 minutes.
Transfections were carried out using the Lonza Nuclefector 4d. Cultures in t75s at 90% confluence were split 1:2 24 hours prior to transfection. RNPs were complexed at 250:50 pmol for 30 minutes prior to transfection, during which time cells were harvested and counted. All reactions were 100 μL and contained 1 e6 cells. Lonza SF solution and Nucleofector program CM-130 were used in all transfections of the H1703 cell line. Lonza SE solution and Nucleofector program CA-137 were used in all transfections of the PDMR. After transfection, 500 μL of media that had been equilibrated to cell culture CO2 and temperature conditions was added to each 100 μL cuvettes. Cuvettes were then placed in the incubator. After 20 minutes, the entire content of each cuvette was seeded into 3 mL of media in a 6 well plate. After 72 hours, samples were dissociated using 200 μL Trypsin 0.25% for 5 minutes. 800 μL culture media was used to quench and split into 1.5 mL tubes each containing 500 μL of the sample. Tubes were spun at 300×g for 5 minutes. One of the tubes was placed in the −20° C. freezer and the other was resuspended in 500 μL of Trizol for RNA extraction and cDNA synthesis.
All sequencing was performed on the Applied Biosystems SeqStudio. The BigDye Terminator v3.1 Cycle Sequencing Kit was used to prepare samples for sequencing. Resulting sequences were analyzed with DECODR to determine indel rates (Bloh et al., CRISPR J. 4:120-31 (2021)).
In some cancers, human NRF2 contains a mutation, R34G, that creates a novel PAM site making it a targetable sequence by CRISPR. By combining the R34G-targeting CRISPR with another CRISPR of high efficiency in a downstream intronic region, exon skipping can be induced, resulting in a higher efficiency of functional knockout than the R34G targeting CRISPR alone. To find a suitable SureKill guide RNA (gRNA) to pair with the R34G targeting CRISPR, we selected the intron between exons 3 and 4 (FIG. 2). A series of gRNAs were created in this region and screened for their ability to induce indels, a measure of their activity (Table 2).
In Table 2, all sequences are listed from 5′ to 3′. Indel %, a measure of CRISPR activity, is based on transfections of individual guide RNAs. All guide RNAs, with the exception of R34G, were designed in the intron between exons 3 and 4.

R34G gRNA: guide RNA GATATAGATCTTGGAGTAAG, SEQ ID NO:1, targets NRF2 R34G mutation (listed as DNA, chemistry not given here)
indel %: 83%
